# In PubChem BioAssay (NCI):
#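 Method: 48-hour compound exposure of cells in 96-well plates, five concentrations, linear interpolation of endpoints. GI50: concentration for 50% inhibition of growth. TGI: total growth inhibition.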
# How the values were obtained:
# Experiment in all cases: NCI-60 cell line screen, 48 h
# [1] = system: 786-0 renal
# [2] = system: A498 renal
# [3] = system: A549 NSCLC
# [4] = system: ACHN renal
# [5] = system: BT-549 breast
# [6] = system: CAKI-1 renal
# [7] = system: CCRF-CEM leukemia
# [8] = system: COLO 205 colon
# [9] = system: DU-145 prostate
# [10] = system: EKVX NSCLC
# [11] = system: HCC-2998 colon
# [12] = system: HCT-116 colon
# [13] = system: HCT-15 colon
# [14] = system: HL-60(TB) leukemia
# [15] = system: HOP-62 NSCLC
# [16] = system: HOP-92 NSCLC
# [17] = system: HS 578T breast
# [18] = system: HT29 colon
# [19] = system: IGROV1 ovarian
# [20] = system: K-562 leukemia
# [21] = system: KM12 colon
# [22] = system: M14 melanoma
# [23] = system: MALME-3M melanoma
# [24] = system: MCF7 breast
# [25] = system: MDA-MB-231 breast
# [26] = system: MDA-MB-435
# [27] = system: MOLT-4 leukemia
# [28] = system: NCI-H226 lung
# [29] = system: NCI-H23 lung
# [30] = system: NCI-H460 lung
# [31] = system: NCI-H522 lung
# [32] = system: NCI/ADR-RES ovarian
# [33] = system: OVCAR-4 ovarian
# [34] = system: OVCAR-5 ovarian
# [35] = system: OVCAR-8 ovarian
# [36] = system: PC-3 prostate
# [37] = system: RPMI-8226 leukemia
# [38] = system: RXF 393 renal
# [39] = system: SF-268 CNS
# [40] = system: SF-295 CNS
# [41] = system: SF-539 CNS
# [42] = system: SK-MEL-2 melanoma
# [43] = system: SK-MEL-28 melanoma
# [44] = system: SK-MEL-5 melanoma
# [45] = system: SK-OV-3 ovarian
# [46] = system: SN12C renal
# [47] = system: SNB-19 CNS
# [48] = system: SNB-75 CNS
# [49] = system: SR leukemia
# [50] = system: SW-620 colon
# [51] = system: T-47D breast
# [52] = system: TK-10 renal
# [53] = system: U251 CNS
# [54] = system: UACC-257 melanoma
# [55] = system: UACC-62 melanoma
# [56] = system: UO-31 renal
smiles,measurement,setting,value
O=C(NCCCNc1cc(-c2cn(-c3ccccc3)nc2-c2cccc(O)c2)ccn1)Nc1ccc(F)cc1,GI50,[1],0.855 µM
same,TGI,[1],3.61 µM
same,GI50,[2],1.21 µM
same,TGI,[2],4.96 µM
same,GI50,[3],3.12 µM
same,TGI,[3],21.7 µM
same,GI50,[4],3.16 µM
same,TGI,[4],14.2 µM
same,GI50,[5],2.18 µM
same,TGI,[5],11.6 µM
same,GI50,[6],2.04 µM
same,TGI,[6],10.7 µM
same,GI50,[7],1.42 µM
same,TGI,[7],25 µM
same,GI50,[8],2.34 µM
same,TGI,[8],6.28 µM
same,GI50,[9],4.22 µM
same,TGI,[9],19.3 µM
same,GI50,[10],2.74 µM
same,TGI,[10],9.51 µM
same,GI50,[11],1.09 µM
same,TGI,[11],4.05 µM
same,GI50,[12],1.62 µM
same,TGI,[12],5.82 µM
same,GI50,[13],0.936 µM
same,TGI,[13],4.04 µM
same,GI50,[14],2.15 µM
same,TGI,[14],14.2 µM
same,GI50,[15],3.24 µM
same,TGI,[15],9.26 µM
same,GI50,[16],0.86 µM
same,TGI,[16],4.97 µM
same,GI50,[17],0.984 µM
same,TGI,[17],5.31 µM
same,GI50,[18],1.09 µM
same,TGI,[18],4.99 µM
same,GI50,[19],1.23 µM
same,TGI,[19],5.82 µM
same,GI50,[20],0.812 µM
same,TGI,[20],25 µM
same,GI50,[21],2.61 µM
same,TGI,[21],5.79 µM
same,GI50,[22],1.57 µM
same,TGI,[22],5.85 µM
same,GI50,[23],0.826 µM
same,TGI,[23],3.42 µM
same,GI50,[24],2.32 µM
same,TGI,[24],6.04 µM
same,GI50,[25],2.18 µM
same,TGI,[25],7.78 µM
same,GI50,[26],1.66 µM
same,TGI,[26],5.05 µM
same,GI50,[27],1.25 µM
same,TGI,[27],15.6 µM
same,GI50,[28],3.39 µM
same,TGI,[28],8.91 µM
same,GI50,[29],3.11 µM
same,TGI,[29],7.65 µM
same,GI50,[30],2.35 µM
same,TGI,[30],5.88 µM
same,GI50,[31],4.03 µM
same,TGI,[31],9.49 µM
same,GI50,[32],3.51 µM
same,TGI,[32],12.5 µM
same,GI50,[33],1.46 µM
same,TGI,[33],8.21 µM
same,GI50,[34],3.37 µM
same,TGI,[34],9.12 µM
same,GI50,[35],2.13 µM
same,TGI,[35],9.26 µM
same,GI50,[36],1.33 µM
same,TGI,[36],8.92 µM
same,GI50,[37],0.865 µM
same,TGI,[37],5.47 µM
same,GI50,[38],0.966 µM
same,TGI,[38],4.85 µM
same,GI50,[39],2.61 µM
same,TGI,[39],11.2 µM
same,GI50,[40],1.38 µM
same,TGI,[40],4.84 µM
same,GI50,[41],1.98 µM
same,TGI,[41],5.38 µM
same,GI50,[42],4 µM
same,TGI,[42],10.1 µM
same,GI50,[43],2.54 µM
same,TGI,[43],5.64 µM
same,GI50,[44],1.64 µM
same,TGI,[44],4.83 µM
same,GI50,[45],3.12 µM
same,TGI,[45],10.8 µM
same,GI50,[46],2.79 µM
same,TGI,[46],8.37 µM
same,GI50,[47],3.29 µM
same,TGI,[47],9.75 µM
same,GI50,[48],0.543 µM
same,TGI,[48],3.18 µM
same,GI50,[49],1.51 µM
same,TGI,[49],13.8 µM
same,GI50,[50],3.04 µM
same,TGI,[50],6.73 µM
same,GI50,[51],1.89 µM
same,TGI,[51],11 µM
same,GI50,[52],6.78 µM
same,TGI,[52],20.3 µM
same,GI50,[53],2.05 µM
same,TGI,[53],7.55 µM
same,GI50,[54],3.07 µM
same,TGI,[54],7.54 µM
same,GI50,[55],3.14 µM
same,TGI,[55],6.6 µM
same,GI50,[56],1.58 µM
same,TGI,[56],9.7 µM
